The values that follow are results of earlier work, collected in publication PMC4340357 (Journal of Chemical Information and Modeling, 2015).

Each structure is given as a SMILES string.

The target in this series is C. perfringens neuraminidase. The following applies: read-out: IC50 against C. perfringens neuraminidase.

As a reminder, the IC50 is the concentration that inhibits the measured activity by half. On to `CC(C)=CCc1c(O)c(CC=C(C)C)c2oc3c(O)ccc(O)c3c(=O)c2c1O` [Gartanin], for which the IC50 is 2900 ± 300 nM.
